In patent US9453026B2, “ACC inhibitors and uses thereof” (Gilead Apollo, Inc., priority 2011, dated 2016):

Legend:
[1] = format: in vivo, Sprague Dawley rats; details: 2 weeks
Description: (§1) The compounds of the present invention are readily adapted to clinical use as anti-obesity agents, insulin sensitizing agents, hyperinsulinemia-reversing agents, and hepatic steatosis-reversing agents. Such activity was determined by assessing the amount of test compound that reduces body weight and percentage body fat, reduces plasma insulin levels, blunts the rise and/or accelerates the reduction in plasma insulin and glucose levels in response to an oral glucose challenge, and reduces hepatic lipid content relative to a control vehicle without test compound in mammals. Sprague Dawley rats were fed either chow, a diet high in sucrose (for example AIN76A rodent diet; Research diets Inc. Cat #10001) or a diet high in fat (for example Research diets Inc. Cat #12451), for from 3-8 weeks prior to and during test compound administration.
(§2) For example, after a 3-8 week period of ad libitum feeding of either a chow, high-fat, or high-sucrose diet, animals that continued to receive the diet were treated for 1-8 weeks with test compound administered either by oral gavage in water or saline or water or saline containing 0.5% methylcelluose using a Q.D., B.I.D, or T.I.D. dosing regimen. At various times during study and at sacrifice (by CO2 asphyxiation), blood was collected either from the tail vein of an unanesthesized rat or from the vena cava of animals at sacrifice into heparin or EDTA containing tubes for centrifugal separation to prepare plasma. Plasma levels of parameters of lipid and carbohydrate metabolism known by those skilled in the art to be altered coincident with anti-obesity, insulin sensitizing, hyperinsulinemia-reversing, and hepatic steatosis-reversing actions, including but not limited to cholesterol and triglycerides, glucose, insulin, leptin, adiponectin, ketone bodies, free fatty acids, and glycerol, are measured using methods known to those skilled in the art.
(§3) The anti-obesity, insulin sensitizing, hyperinsulinemia-reversing, and hepatic steatosis-reversing potential of compounds of the present invention are exemplified through the actions of example compound I-181. […] Results of the reduction in total body weight measurements after treatment of high fat diet-fed DIO rats with compound I-181 are shown in FIG. 11. The degree of body weight reduction paralleled plasma drug levels measured at the end of the study. […] The plasma leptin levels for animals receiving the standard chow diet (lean controls) were also evaluated to determine the extent of parameter normalization produced by compound I-181. […] Results of the reduction in plasma insulin measurements after treatment of high fat diet-fed DIO rats with compound I-181 are shown in FIG. 12. […] Results of the reduction in hepatic triglyceride and cholesterol measurements after treatment of high fat diet-fed DIO rats with compound I-181 are shown in FIG. 13. […] Results of diet-induced obesity studies measuring the effect of compound I-181 on plasma cholesterol and plasma triglycerides are shown in Table 4 below. Data shown are mean values for n=14 animals per group±SEM.

[2] = High sucrose diet DIO study, plasma cholesterol and triglycerides; format: in vivo, Sprague Dawley rats; details: for Plasma Cholesterol / Plasma Triglycerides: high sucrose-fed DIO rats, mean ± SEM, n=14
Description: as §1, §2, §3

[3] = high-fat diet rats, 3, 10, 30 mg/kg once daily oral gavage

COc1ccccc1[C@H](Cn1c(=O)n(C(C)(C)C(=O)O)c(=O)c2c(C)c(-c3ncco3)sc21)OC1CCOCC1 [I-181, 2-[1-[2-(2-methoxyphenyl)-2-(oxan-4-yloxy)ethyl]-5-methyl-6-(1,3-oxazol-2-yl)-2,4-dioxo-1H,2H,3H,4H-thieno[2,3-d]pyrimidin-3-yl]-2-methylpropanoic acid]
plasma glucose levels [1, 3]: no concomitant reduction in plasma glucose levels | plasma leptin levels [1, 3]: reduced by all compound I-181 doses evaluated | total body weight relative to vehicle-treated control animals ([1]; high-fat diet rats, 3, 10, 30 mg/kg once daily oral gavage, FIG. 11): dose-dependent reduction in total body weight | plasma insulin levels ([1]; high-fat diet rats, 3, 10, 30 mg/kg once daily oral gavage, FIG. 12): reduced to near lean control levels by all three compound I-181 doses | hepatic triglycerides ([1]; high-fat diet rats, 3, 10, 30 mg/kg once daily oral gavage, FIG. 13): reduced in a dose-dependent manner | hepatic triglycerides at the highest dose ([1]; high-fat diet rats, highest dose evaluated (30 mg/kg)): normalized to lean control levels by the highest dose evaluated | plasma cholesterol and triglyceride levels ([2]; high sucrose diet rats, 3, 10, 30 mg/kg once daily oral gavage, two weeks): dose-dependent reduction in plasma cholesterol and triglyceride levels | Plasma Cholesterol ([2]; 3 mg/kg, Day 7): 94 ± 3 mg/dL | Plasma Triglycerides ([2]; 3 mg/kg, Day 7): 154 ± 15 mg/dL | Plasma Cholesterol ([2]; 3 mg/kg, Day 14): 96 ± 3 mg/dL | Plasma Triglycerides ([2]; 3 mg/kg, Day 14): 171 ± 16 mg/dL | Plasma Cholesterol ([2]; 3 mg/kg, Prebleed): 96 ± 2 mg/dL | Plasma Triglycerides ([2]; 3 mg/kg, Prebleed): 144 ± 12 mg/dL | Plasma Cholesterol ([2]; 10 mg/kg, Day 7): 82 ± 3 mg/dL | Plasma Triglycerides ([2]; 10 mg/kg, Day 7): 139 ± 10 mg/dL | Plasma Cholesterol ([2]; 10 mg/kg, Day 14): 87 ± 3 mg/dL | Plasma Triglycerides ([2]; 10 mg/kg, Day 14): 165 ± 15 mg/dL | Plasma Cholesterol ([2]; 10 mg/kg, Prebleed): 96 ± 3 mg/dL | Plasma Triglycerides ([2]; 10 mg/kg, Prebleed): 183 ± 18 mg/dL | Plasma Cholesterol ([2]; 30 mg/kg, Day 7): 78 ± 3 mg/dL | Plasma Triglycerides ([2]; 30 mg/kg, Day 7): 116 ± 9 mg/dL | Plasma Cholesterol ([2]; 30 mg/kg, Day 14): 78 ± 2 mg/dL | Plasma Triglycerides ([2]; 30 mg/kg, Day 14): 118 ± 14 mg/dL | Plasma Cholesterol ([2]; 30 mg/kg, Prebleed): 99 ± 3 mg/dL | Plasma Triglycerides ([2]; 30 mg/kg, Prebleed): 166 ± 13 mg/dL
